{
  "source": "paper PMC7891648",
  "about": "“A simple novel approach for detecting blood–brain barrier permeability using GPCR internalization” (Neuropathology and Applied Neurobiology, 2020)",
  "key": {"[1]": {"biological_target": "T1, SST2 (Mus musculus, UniProt P30875)", "T1 construct": "The endogenous SST2 was immunolocalized using an extensively characterized rabbit monoclonal antibody; from tissue; host or cells: brain of adult C57Bl/6 mice, P7 OF1 mouse pups and C57Bl/6 embryos (E13.5-E18.5), in vivo", "T1 sequence (P30875 whole entry)": "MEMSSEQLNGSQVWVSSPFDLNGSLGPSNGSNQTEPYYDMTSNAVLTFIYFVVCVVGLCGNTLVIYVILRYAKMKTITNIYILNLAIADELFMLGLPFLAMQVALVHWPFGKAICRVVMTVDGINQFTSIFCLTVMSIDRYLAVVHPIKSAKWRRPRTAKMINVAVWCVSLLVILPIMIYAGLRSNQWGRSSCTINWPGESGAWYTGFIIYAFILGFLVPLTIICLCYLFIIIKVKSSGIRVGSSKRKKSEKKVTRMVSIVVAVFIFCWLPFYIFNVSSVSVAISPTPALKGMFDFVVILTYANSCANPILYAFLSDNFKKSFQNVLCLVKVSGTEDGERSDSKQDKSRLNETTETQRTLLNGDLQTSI", "test": "In vivo model 2: focused ultrasound-mediated BBB disruption, extravasation detected by SST2 internalization or MRI", "conditions": "after microbubble sonication of the targeted area, i.v.", "protocol": "BBB disruption induced by magnetic resonance imaging (MRI)‐guided focused ultrasound (FUS) (MRgFUS) was performed as previously reported [28].\nStereological measures of estimated volume in the in vivo model 2 was performed with the Volumest plug‐in [32] in the Fiji distribution of ImageJ [33]. Brightfield images of serial coronal sections separated by 180 μm were collected. The number of serial sections, the thickness of the sections, the sampling interval and pixel‐to‐μm scaling were entered into the Volumest plug‐in. Next, the cortical areas displaying BBB disruption detected by SST2 internalization were manually traced and the volume estimate was calculated in the Volumest plug‐in [32].\nAdult C57Bl/6 mice (n=3) were anaesthetized with isoflurane (1-2% at beginning, then 0.8% during MRI acquisition). The catheter was installed in the tail vein and the head was shaved with a depilatory cream. Mice were then installed on the MRgFUS system (Image Guided Therapy) and the transducer was placed on their head. MR contrast agent (MRCA) (Dotarem, Guerbet, France; 0.1 mL) was injected intravenously outside the MRI tunnel, before the baseline MRI acquisition. Mice were then removed from the MRI tunnel in order to inject the ultrasound contrast agent (UCA) (Sonovue, Bracco, Italy; 0.15 mL). […]"}, "[2]": {"test_system": "Human Primary Brain Microvascular Endothelial Cell (hPBMEC) monolayers", "test": "Fluorescein permeability of hPBMEC monolayers (tight junction functionality)", "assay_type": "in vitro ADME", "conditions": "hPBMEC monolayer, with 1 M mannitol treatment 30 min, versus basal", "protocol": "The hPBMECs were cultured as previously described [31]. […] Differentiated hPBMECs with the BBB phenotype (TEER> 1000 Ωxcm^2) were treated or not with 1 M mannitol in serum‐free culture medium for 30 min to temporarily open tight junctions. Then, mannitol solution was removed and replaced by culture medium. Tight junction opening was evaluated with the measurements of fluorescein permeability, a small hydrophilic compound known to cross the BBB via the paracellular route. […] The medium of the abluminal compartment was then collected during a 2‐hour period (n = 3 per condition).\nThe experimentation was conducted in compliance with the French legislation, and the protocol was permitted by the French Ministry of Higher Education and Research (CODECOH DC-2014-2229). Brain capillaries were isolated using soft digestion of patient brain tissues and then seeded. Brain primary microvascular endothelial cells were shortly amplified and seeded on 12-well-type Transwell® (Corning, membrane area: 1.12 cm^2) with microporous membranes (pore size: 0.4 µm). Cells were cultured in EBM-2 medium (Lonza, Basel, Switzerland) supplemented with 20% serum and growth factors (Sigma-Aldrich, St. Louis, MO, USA). Transendothelial electrical resistance (TEER) was measured as an integrity marker and to assess cellular barrier tightness."}, "[3]": {"biological_target": "T2, SST2 (Rattus norvegicus, UniProt P30680)", "T2 sequence (P30680 whole entry)": "as the sequence (P30875 whole entry) above, with M3L, S4T, L8F, V15I, S16P, C168G, T335A counted along it", "conditions": "P14 rats, 2.5 mg/kg i.p., 45 mins", "procedure": "Adult mice and post‐natal day 14 (P14) male rats. […] Brains were dissected, post‐fixed in the same fixative overnight at 4°C, cryoprotected, frozen in liquid isopentane at −45°C and sectioned in the coronal plane at a thickness of 30 μm and collected in PBS.\nThe SST2 receptor was immunolocalized on brain sections (in vivo models 1‐5), whole embryo sections (in vivo model 5) and DAOY cells (in vitro model). Brain sections were selected at the level of the circumventricular organs (in vivo model 1), at the level of the focused ultrasound‐mediated BBB opening (in vivo model 2), at the level of the ischaemia‐reperfusion lesions (in vivo model 3), at the level of the traumatic brain injury (in vivo model 4) and at the level of the caudal embryonic cortex (in vivo model 5). See Supporting Information for further details."}, "[4]": {"biological_target": "T2, SST2", "test": "In vivo model 3: juvenile cerebral ischaemia, OCT extravasation detected by SST2 internalization", "set-up": "two sensory CVOs in which neurons natively express the SST2; from tissue; host or cells: brain of P14 rats (area postrema, OVLT, arcuate nucleus, cerebral cortex), in vivo", "conditions": "P14 rats, 2.5 mg/kg i.p., 45 mins", "procedure": "Ischaemia‐reperfusion. Ischaemia was induced in P14 rats as previously reported. See Supporting Information for further details.\nCerebral ischaemia. Isoflurane-anaesthetized P14 rats were exposed to proximal left middle cerebral artery electrocoagulation (MCAo) combined with a transient (60 min) double occlusion of common carotid arteries (CCAo). Carotid blood-flow restoration was assessed by release of the carotid clips."}, "[5]": {"test": "Tolerability after acute OCT i.p. injection", "assay_type": "in vivo", "conditions": "rat and mice models, 2.5 mg/kg i.p."}, "[6]": {"conditions": "cited from earlier work"}, "[7]": {"conditions": "cited from earlier work", "description": "The Arc display several populations of neurons that are pivotal for regulating energy homoeostasis, food intake and cardiovascular functions. Because of this central role at the interface between the brain and the periphery, a few studies have hypothesized that the Arc could share common features with classical CVOs. […] We have therefore reinvestigated this subject using our approach. […] Membrane‐associated SST2 in Arc neurons intern ...", "remark": "listed apart in the source"}},
  "data": [
    {"compound": "CNC[C@H](O)[C@@H](O)[C@H](O)[C@H](O)CO.O=C([O-])CN1CCN(CC(=O)[O-])CCN(CC(=O)O)CCN(CC(=O)[O-])CC1.[Gd+3]", "note": "[gadolinium]", "values": [
      {"measurement": "Gd extravasation on T1-weighted MRI", "setting": "[1]", "result": "Extravasation was evident from the cerebral cortex to deep brain structures"}
    ]},
    {"compound": "O=C1OC2(c3ccc(O)cc3Oc3cc(O)ccc32)c2ccccc21", "note": "[fluorescein]", "values": [
      {"measurement": "increase of fluorescein permeability", "setting": "[2]", "result": "600 ± 25", "unit": "%"}
    ]},
    {"compound": "C[C@@H](O)[C@@H]1NC(=O)[C@H](CCCCN)NC(=O)[C@@H](Cc2c[nH]c3ccccc23)NC(=O)[C@H](Cc2ccccc2)NC(=O)[C@@H](NC(=O)[C@H](N)Cc2ccccc2)CSSC[C@@H](C(=O)N[C@H](CO)[C@@H](C)O)NC1=O", "note": "[OCT, octreotide]", "values": [
      {"measurement": "SST2 immunoreactivity in AP and OVLT (permeable capillaries)", "setting": "[3]", "result": "immunoreactivity was confined to intracytoplasmic granules near the nucleus and in proximal dendrites"},
      {"measurement": "SST2 in arcuate nucleus neurons", "setting": "[3]; naïve animals", "result": "internalized and clustered in TGN‐like structures"},
      {"measurement": "SST2 internalization around cortical lesion", "setting": "[4]; 6 h after ischaemia", "result": "few neurons with internalized receptors were visible"},
      {"measurement": "SST2 internalization around cortical lesion", "setting": "[4]; 12 h after ischaemia", "result": "a larger number of neurons with internalized SST2 are localized in a narrow band"},
      {"measurement": "SST2 internalization around cortical lesion", "setting": "[4]; 24 h after ischaemia", "result": "induced large areas of SST2 internalization around the core of the cortical lesion"},
      {"measurement": "physiological or behavioural parameters after acute i.p. injection until perfusion", "setting": "[5]", "result": "did not observe any gross changes in physiological or behavioural parameters"}
    ]},
    {"compound": "somatostatin", "values": [
      {"measurement": "half-life in the circulation", "setting": "[6]", "result": "2 to 3", "unit": "min"}
    ]},
    {"compound": "Cc1cc(-c2ccc(/N=N/c3ccc4c(S(=O)(=O)O)cc(S(=O)(=O)O)c(N)c4c3O)c(C)c2)ccc1/N=N/c1ccc2c(S(=O)(=O)O)cc(S(=O)(=O)O)c(N)c2c1O", "note": "[Evans blue]", "values": [
      {"measurement": "dye extravasation in the Arc", "setting": "[7]", "result": "extravasated only in the Arc of 24‐hour fasted mice but not in control‐fed mice"}
    ]}
  ]
}
